Experimental data as given in patent US5364861A, “Optical isomers of 7-[3-(1,1-dialkylmethyl-1-amino-1-pyrrolidinyl]-quinolones and naphthyridones as antibacterial agents” (Warner-Lambert Company, priority 1993, dated 1994).
≈ marks a conversion by molar mass, not a printed value. Where a name gives a salt, the structure may show the parent alone. Read-outs that look alike come from different tables or passages of the source.

Legend:
Ent. cloacae MA2646 = experiment: in vitro antibacterial activity, microtitration dilution (MIC), Ent. cloacae MA2646; format: cell-based; settings: Enterobacter cloacae, read-out: minimum inhibiting concentration (MIC)
From the text: (§1) The in vitro antibacterial activity is obtained when tested by the microtitration dilution method as described in Heifetz, et al., Antimicr. Agents & Chemother. 1974;6:124, which is incorporated herein by reference.
(§2) By use of the above methods, the following minimum inhibiting concentration values (MICs in μg/ml), PD50 's in mg/kg, no effect phototoxicity dose in mg/kg and the cytotoxicity IC50 in μg/mL were obtained for representative enantiomers of the invention and compounds of the prior art as shown in the table.

Prot. rettgeri M 1771 = experiment: in vitro antibacterial activity, microtitration dilution (MIC), Prot. rettgeri M 1771; format: cell-based; settings: Providencia rettgeri, M1771, read-out: minimum inhibiting concentration (MIC)
From the text: as §1, §2

Strep. pyogenes C-203 [1] = experiment: in vitro antibacterial activity, microtitration dilution (MIC), Strep. pyogenes C-203; format: cell-based; settings: Streptococcus pyogenes, C203, read-out: minimum inhibiting concentration (MIC)
From the text: as §1, §2

Pseud. aeruginosa UI-18 [2] = experiment: in vitro antibacterial activity, microtitration dilution (MIC), Pseud. aeruginosa UI-18; format: cell-based; settings: Pseudomonas aeruginosa, UI18, read-out: minimum inhibiting concentration (MIC)
From the text: as §1, §2

Esch. coli Vogel [3] = experiment: in vitro antibacterial activity, microtitration dilution (MIC), Esch. coli Vogel; format: cell-based; settings: Escherichia coli, read-out: minimum inhibiting concentration (MIC)
From the text: as §1, §2

Strep. faecalis MGH-2 = experiment: in vitro antibacterial activity, microtitration dilution (MIC), Strep. faecalis MGH-2; format: cell-based; settings: Enterococcus faecalis, MGH2, read-out: minimum inhibiting concentration (MIC)
From the text: as §1, §2

Staph. aureus UC-76 = experiment: in vitro antibacterial activity, microtitration dilution (MIC), Staph. aureus UC-76; format: cell-based; settings: Staphylococcus aureus, UC76, read-out: minimum inhibiting concentration (MIC)
From the text: as §1, §2

Staph. aureus H 228 = experiment: in vitro antibacterial activity, microtitration dilution (MIC), Staph. aureus H 228; format: cell-based; settings: Staphylococcus aureus, H228, read-out: minimum inhibiting concentration (MIC)
From the text: as §1, §2

Strep. pneumoniae SV-1 = experiment: in vitro antibacterial activity, microtitration dilution (MIC), Strep. pneumoniae SV-1; format: cell-based; settings: Streptococcus pneumoniae, SV1, read-out: minimum inhibiting concentration (MIC)
From the text: as §1, §2

Klebs. pneumoniae MGH-2 = experiment: in vitro antibacterial activity, microtitration dilution (MIC), Klebs. pneumoniae MGH-2; format: cell-based; settings: Klebsiella pneumoniae, MGH2, read-out: minimum inhibiting concentration (MIC)
From the text: as §1, §2

Pseud. aeruginosa UI-18 [4] = experiment: median protective dose in mice given lethal systemic infection, Pseud. aeruginosa; format: in vivo; settings: Pseudomonas aeruginosa, UI18, Pseud. aeruginosa, single dose at time of challenge, route not given, read-out: median protective dose (PD50)
Procedure: (§3) The in vivo activity is obtained when the compounds are tested according to the procedure of Miller, et al (Proc. Soc. Exp. Biol. Med. 1944;57:261). The median protective dose (PD50) was determined in mice given lethal systemic infections. Single doses of compound were given at time of challenge.
as §2
(§4) The in vivo data as PD50 's are reported below the line of MICs for the same compound.

[5] = cytotoxicity, colony reduction of hamster V-79 cells; format: cell-based; settings: 3 hours treatment, colonies counted after 5 days, read-out: cytotoxicity IC50 (Cytotox)
Procedure: The cytotoxicity data is obtained using hamster V-79 cells. The cells were suspended in tissue culture medium and grown overnight. Cells were treated with drug for 3 hours, washed free of drug and then replated, and the colonies counted after 5 days. The concentration of drug that reduced colonies by 50% relative to control was recorded.
as §2

Strep. pyogenes C-203 [6] = experiment: median protective dose in mice given lethal systemic infection, Strep. pyogenes; format: in vivo; settings: Streptococcus pyogenes, C203, Strep. pyogenes, single dose at time of challenge, route not given, read-out: median protective dose (PD50)
Procedure: as §3, §2, §4

Esch. coli Vogel [7] = experiment: median protective dose in mice given lethal systemic infection, Esch. coli; format: in vivo; settings: Escherichia coli, single dose at time of challenge, route not given, read-out: median protective dose (PD50)
Procedure: as §3, §2, §4

Row | Structure (SMILES) | MIC (Ent. cloacae MA2646) [mg/L] | MIC (Prot. rettgeri M 1771) [mg/L] | MIC (Strep. pyogenes C-203 [1]) [mg/L] | MIC (Pseud. aeruginosa UI-18 [2]) [mg/L] | MIC (Esch. coli Vogel [3]) [mg/L] | MIC (Strep. faecalis MGH-2) [mg/L] | MIC (Staph. aureus UC-76) [mg/L] | MIC (Staph. aureus H 228) [mg/L] | MIC (Strep. pneumoniae SV-1) [mg/L] | MIC (Klebs. pneumoniae MGH-2) [mg/L] | ED50 (Pseud. aeruginosa UI-18 [4]; first line below the MICs) [mg/kg] | ED50 (Pseud. aeruginosa UI-18 [4]; second line below the MICs) [mg/kg] | CC50 at 3 h [5] [mg/L] | ED50 (Strep. pyogenes C-203 [6]; first line below the MICs) [mg/kg] | ED50 (Strep. pyogenes C-203 [6]; second line below the MICs) [mg/kg] | ED50 (Esch. coli Vogel [7]; first line below the MICs) [mg/kg] | ED50 (Esch. coli Vogel [7]; second line below the MICs) [mg/kg]
1 | Cc1c(F)c(N2CC[C@H](C(C)(C)N)C2)cc2c1c(=O)c(C(=O)O)cn2-c1ccc(F)cc1F [Example 11, S-7-[3-(1-amino-1-methylethyl)-1-pyrrolidinyl]-1-(2,4-difluorophenyl)-6-fluoro-1,4-dihydro-5-methyl-4-oxo-3-quinolinecarboxylic acid] | 0.1 (≈ 0.218 µM) | 0.4 (≈ 0.871 µM) | 0.013 (≈ 0.0283 µM) | 1.6 (≈ 3.48 µM) | 0.1 (≈ 0.218 µM) | 0.1 (≈ 0.218 µM) | 0.013 (≈ 0.0283 µM) | 0.025 (≈ 0.0544 µM) | 0.013 (≈ 0.0283 µM) | 0.2 (≈ 0.435 µM) | – | – | – | – | – | – | –
2 | CC(C)(N)[C@@H]1CCN(c2c(F)cc3c(=O)c(C(=O)O)cn(C4CC4)c3c2Cl)C1 [Example 2, (R)-7-[3-(1-Amino-1-methylethyl-1-pyrrolidinyl]-8-chloro-1-cyclopropyl-6-fluoro-1,4-dihydro-4-oxo-3-quinolinecarboxylic acid, monohydrochloride] | 0.05 | 0.2 | ≤ 0.003 | 0.8 | 0.05 | 0.013 | ≤ 0.003 | 0.006 | ≤ 0.003 | 0.1 | 100 | 17 | 8 | 2 | 0.14 | 8 | 1
3 | CC(C)(N)[C@H]1CCN(c2c(F)cc3c(=O)c(C(=O)O)cn(C4CC4)c3c2F)C1 [Example 12, (S)-7-[3-(1-Amino-1-methylethyl)-1-pyrrolidinyl]-1-cyclopropyl-6,8-difluoro-1,4-dihydro-4-oxo-3-quinolinecarboxylic acid] | 0.2 (≈ 0.511 µM) | 0.4 (≈ 1.02 µM) | 0.006 (≈ 0.0153 µM) | 1.6 (≈ 4.09 µM) | 0.1 (≈ 0.255 µM) | 0.025 (≈ 0.0639 µM) | ≤ 0.003 | 0.025 (≈ 0.0639 µM) | 0.006 (≈ 0.0153 µM) | 0.2 (≈ 0.511 µM) | – | – | – | 12 | 0.6 | – | –
4 | COc1c(N2CC[C@@H](C(C)(C)N)C2)c(F)cc2c(=O)c(C(=O)O)cn(C3CC3)c12 [Example 7, (R)-7-[3-(1-Amino-1-methylethyl)-1-pyrrolidinyl]-1-cyclopropyl-6-fluoro-1,4-dihydro-8-methoxy-4-oxo-3-quinolinecarboxylic acid] | 0.1 (≈ 0.248 µM) | 0.4 (≈ 0.991 µM) | < 0.003 | 1.6 (≈ 3.97 µM) | 0.1 (≈ 0.248 µM) | 0.013 (≈ 0.0322 µM) | ≤ 0.003 | 0.013 (≈ 0.0322 µM) | ≤ 0.003 | 0.2 (≈ 0.496 µM) | – | – | 18 (≈ 44.6 µM) | 3 | 0.8 | 26 | 3
5 | COc1c(N2CC[C@H](C(C)(C)N)C2)c(F)cc2c(=O)c(C(=O)O)cn(C3CC3)c12 [Example 8, (S)-7-[3-(1-Amino-1-methylethyl)-1-pyrrolidinyl]-1-cyclopropyl-6-fluoro-1,4-dihydro-8-methoxy-4-oxo-3-quinolinecarboxylic acid] | 0.2 (≈ 0.496 µM) | 0.8 (≈ 1.98 µM) | 0.025 (≈ 0.062 µM) | 3.1 (≈ 7.68 µM) | 0.2 (≈ 0.496 µM) | 0.05 (≈ 0.124 µM) | 0.013 (≈ 0.0322 µM) | 0.05 (≈ 0.124 µM) | 0.025 (≈ 0.062 µM) | 0.4 (≈ 0.991 µM) | – | – | – | – | – | – | –
6 | CC(C)(N)[C@H]1CCN(c2c(F)cc3c(=O)c(C(=O)O)cn(C4CC4)c3c2Cl)C1 [Example 1, (S)-7-[3-(1-Amino-1-methylethyl)-1-pyrrolidinyl]-8-chloro-1-cyclopropyl-6-fluoro-1,4-dihydro-4-oxo-3-quinolinecarboxylic acid, monohydrochloride] | 0.1 | 0.4 | 0.025 | 1.6 | 0.1 | 0.05 | 0.013 | 0.025 | 0.013 | 0.2 | – | – | – | 13 | 4 | 27 | 4
7 | CNC(C)(C)[C@@H]1CCN(c2c(F)cc3c(=O)c(C(=O)O)cn(C4CC4)c3c2Cl)C1 [Example 6, (R)-08-Chloro-1-cyclopropyl-6-fluoro-1,4-dihydro-7-{3-[1-methyl-1-(methylamino)ethyl]-1-pyrrolidinyl}-4-oxo-3-quinolinecarboxylic acid, monohydrochloride] | 0.2 | 0.4 | ≤ 0.003 | 3.1 | 0.2 | 0.025 | ≤ 0.003 | 0.013 | ≤ 0.003 | 0.4 | – | – | – | 3 | 0.5 | 11 | 2
8 | CC(C)(N)[C@@H]1CCN(c2cc3c(c(N)c2F)c(=O)c(C(=O)O)cn3C2CC2)C1 [Example 9, (R)-7-[3-(1-Amino-1-methylethyl)-1-pyrrolidinyl]-5-amino-1-cyclopropyl-6-fluoro-1,4-dihydro-4-oxo-3-quinolinecarboxylic acid] | 0.4 (≈ 1.03 µM) | 0.8 (≈ 2.06 µM) | 0.006 (≈ 0.0154 µM) | 3.1 (≈ 7.98 µM) | 0.4 (≈ 1.03 µM) | 0.05 (≈ 0.129 µM) | 0.006 (≈ 0.0154 µM) | 0.025 (≈ 0.0644 µM) | 0.006 (≈ 0.0154 µM) | 0.8 (≈ 2.06 µM) | – | – | 13 (≈ 33.5 µM) | 11 | 2 | – | –
9 | Cc1c(F)c(N2CC[C@@H](C(C)(C)N)C2)cc2c1c(=O)c(C(=O)O)cn2-c1ccc(F)cc1F [Example 10, (R)-7-[3-(1-Amino-1-methylethyl)-1-pyrrolidinyl]-1-(2,4-difluorophenyl)-6-fluoro-1,4-dihydro-5-methyl-4-oxo-3-quinolinecarboxylic acid] | 0.4 (≈ 0.871 µM) | 1.6 (≈ 3.48 µM) | 0.2 (≈ 0.435 µM) | 3.1 (≈ 6.75 µM) | 0.4 (≈ 0.871 µM) | 0.4 (≈ 0.871 µM) | 0.05 (≈ 0.109 µM) | 0.1 (≈ 0.218 µM) | 0.4 (≈ 0.871 µM) | 0.8 (≈ 1.74 µM) | – | – | – | – | – | – | –
